Reference: ChEMBL document CHEMBL1201862, “PubChem BioAssay data set” (2004)
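Five concentrations, 48 hours, 96-well plates. Abbreviation: GI50, concentration required for 50% inhibition of growth.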 Active and inactive are the calls of the source. No stated cut-off is given here; in the data, active = GI50 up to about 1.1 µM and inactive = higher.

Assays:
Assay in all cases: NCI anticancer screen, dose series, 48 h
LXFL 529 = system: LXFL 529
DLD-1 = system: DLD-1
RXF 631 = system: RXF 631
DMS-114 = system: DMS-114
KM-20L2 = system: KM-20L2
HOP-18 = system: HOP-18
M19-MEL = system: M19-MEL
DMS-273 = system: DMS-273
XF498 = system: XF498

SMILES	GI50 (LXFL 529)	GI50 (DLD-1)	GI50 (RXF 631)	GI50 (DMS-114)	GI50 (KM-20L2)	GI50 (HOP-18)	GI50 (M19-MEL)	GI50 (DMS-273)	GI50 (XF498)
CN(CCc1ccccn1)/[N+]([O-])=N/O.CNCCc1ccccn1	> 100 µM (inactive)	> 100 µM (inactive)	> 100 µM (inactive)	> 100 µM (inactive)	> 100 µM (inactive)	> 100 µM (inactive)	> 100 µM (inactive)	> 100 µM (inactive)	
CCCCCCCCCCCCCCCCOCC(CN(C)CCN(C)C)OCCCCCCCCCCCCCCCC (stereo not drawn)	> 100 µM (inactive)	> 100 µM (inactive)	> 100 µM (inactive)	> 100 µM (inactive)	> 100 µM (inactive)	> 100 µM (inactive)	> 100 µM (inactive)	> 100 µM (inactive)	
COc1cccc2c1C1(O)C2CCCCCCCCCC12OCCCO2 (stereo not drawn)	45.6 µM (inactive)	6.64 µM (inactive)		> 100 µM (inactive)	> 100 µM (inactive)	> 100 µM (inactive)		> 100 µM (inactive)	
Cc1ccc(S(=O)(=O)NC(=O)NC23CC4CC(CC(F)(C4)C2)C3)cc1	> 100 µM (inactive)	> 100 µM (inactive)		> 100 µM (inactive)	> 100 µM (inactive)		> 100 µM (inactive)	> 100 µM (inactive)	> 100 µM (inactive)
Clc1ccc(-n2nnc(C3=NCCN3)c2-c2ccccc2)cc1	> 100 µM (inactive)	> 100 µM (inactive)		> 100 µM (inactive)	> 100 µM (inactive)	> 100 µM (inactive)	> 100 µM (inactive)	> 100 µM (inactive)	> 100 µM (inactive)
C=C(C)C1Cc2c(cc(OC)c3c(=O)c4ccccc4n(C)c23)O1 (stereo not drawn)	> 100 µM (inactive)	> 100 µM (inactive)		91.8 µM (inactive)	> 100 µM (inactive)	> 100 µM (inactive)	63.7 µM (inactive)	91.6 µM (inactive)	> 100 µM (inactive)
COc1cc(CC2c3cc(OC)c(OC)cc3CCN2C)ccc1O (stereo not drawn)	> 100 µM (inactive)	> 100 µM (inactive)			> 100 µM (inactive)	> 100 µM (inactive)			> 100 µM (inactive)
O=C1[C@H]2ON(c3ccccc3)C(c3ccc(Cl)cc3Cl)[C@H]2C(=O)N1c1ccc(Cc2ccc(N3C(=O)[C@@H]4ON(c5ccccc5)C(c5ccc(Cl)cc5Cl)[C@@H]4C3=O)cc2)cc1 (stereo partly drawn)	> 100 µM (inactive)	> 100 µM (inactive)		> 100 µM (inactive)	> 100 µM (inactive)	> 100 µM (inactive)	> 100 µM (inactive)	> 100 µM (inactive)	
O[C@]12c3ccccc3C1CCCC2N1CCOCC1 (stereo partly drawn)	> 100 µM (inactive)			> 100 µM (inactive)	> 100 µM (inactive)	> 100 µM (inactive)	> 100 µM (inactive)	> 100 µM (inactive)	> 100 µM (inactive)
C=C1C(=O)OC2/C=C(\C)C3OC3/C=C(/C(=O)OC)C(OC(C)=O)C(OC(=O)C(C)(O)C(C)OC(C)=O)C12 (stereo not drawn)	1.1 µM (active)	2.39 µM (inactive)	2.55 µM (inactive)	1.15 µM (inactive)			2.39 µM (inactive)	1.57 µM (inactive)	1.96 µM (inactive)
O=C(c1ccc(Cl)cc1)c1ccc(OCCCOc2ccc(C(=O)c3ccc(Cl)cc3)cc2Cl)c(Cl)c1	> 100 µM (inactive)	> 100 µM (inactive)	> 100 µM (inactive)	> 100 µM (inactive)	> 100 µM (inactive)		> 100 µM (inactive)	> 100 µM (inactive)	> 100 µM (inactive)
CSc1n[n+]2c(s1)SCCC2	> 100 µM (inactive)	> 100 µM (inactive)	> 100 µM (inactive)	62.5 µM (inactive)		42.7 µM (inactive)	> 100 µM (inactive)	> 100 µM (inactive)	> 100 µM (inactive)
COC(=O)C(C(=O)C(=O)Nc1ccc(OC)cc1[N+](=O)[O-])c1nc2cc(C)c(C)cc2nc1O (stereo not drawn)	> 100 µM (inactive)	> 100 µM (inactive)	> 100 µM (inactive)	> 100 µM (inactive)	> 100 µM (inactive)	> 100 µM (inactive)	> 100 µM (inactive)		
O=C(/C=C/c1ccc(O)cc1)c1ccc(O)cc1 [4,4'-DIHYDROXYCHALCONE]		18 µM (inactive)		18.9 µM (inactive)	20.3 µM (inactive)	35.2 µM (inactive)	21.7 µM (inactive)	16.5 µM (inactive)	19.3 µM (inactive)
CCCCCCCCCCCCCCCCCC(=O)O[C@H](COC(=O)CCCCCCCCCCC)COC(=O)CCCCCCCCCCCCCCC	> 100 µM (inactive)	> 100 µM (inactive)	> 100 µM (inactive)	> 100 µM (inactive)	> 100 µM (inactive)	> 100 µM (inactive)	> 100 µM (inactive)	> 100 µM (inactive)	
CC(=O)COC(=O)CC(C)=O	> 100 µM (inactive)	> 100 µM (inactive)	> 100 µM (inactive)	> 100 µM (inactive)	> 100 µM (inactive)		> 100 µM (inactive)	> 100 µM (inactive)	> 100 µM (inactive)
C/C(=N\N=C(N)N)c1sc(-c2nc(C)c(/C(C)=N/N=C(N)N)s2)nc1C	> 88.3 µM (inactive)	> 51.2 µM (inactive)			> 100 µM (inactive)	> 100 µM (inactive)	> 100 µM (inactive)	> 100 µM (inactive)	> 100 µM (inactive)
NS(=O)(=O)c1ccc(Nc2c3ccccc3nc3c(C(=O)N4CCN(CCO)CC4)cccc23)cc1	60.3 µM (inactive)			75.5 µM (inactive)	> 100 µM (inactive)	> 100 µM (inactive)	> 100 µM (inactive)	82.6 µM (inactive)	> 100 µM (inactive)
CCCCCCCCCCSC(=O)NC	49.4 µM (inactive)	36.9 µM (inactive)			> 10 µM (inactive)	63 µM (inactive)	38.1 µM (inactive)	29.2 µM (inactive)	21.3 µM (inactive)
COc1cc2c(cc1OC)[C@H]1C(COC(=O)Nc3ccccc3)CN1CC2 (stereo partly drawn)	> 100 µM (inactive)	> 100 µM (inactive)				> 100 µM (inactive)	> 100 µM (inactive)	> 100 µM (inactive)	
